Results as given in patent publication US20220411362A1, “DITERPENOID COMPOUNDS THAT ACT ON PROTEIN KINASE C (PKC)” (K-Gen, Inc., priority 2019, published 2022).

What was measured:
[1] = tested on: Mino (Lymphoma) cell line; assay: Proliferation of Mino; assay type: cell-based; conditions: for IC50: Homo sapiens, MINO, read-out: IC50 in μM Mino (Lymphoma); for ratio of (IC50 of K01)/(IC50 of compound), Mino: value in parenthesis
Outline: (§1)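 Seeding: KP-4 800-1000, HL-60 5000, Namalwa/Mino 5000-10000 cells/well; 24 h, 37° C. 3-fold DMSO dilution series, ≤0.25% DMSO final, 96 h exposure. Readout CellTiter Glo luminescence; IC50 fit, potency also expressed as IC50 ratio against comparator K01 to normalise across batches.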

C1b domain of human PKCθ = target: T1, C1b domain of human PKCθ (Homo sapiens, UniProt Q04759); assay: Competitive 3H-PDBu binding to C1b domain of PKCθ
T1 construct: Genes encoding C1b domains of human PKCα, δ, ε, θ, and PKD1 (PKCμ) were synthesized; made in house; host or cells: E. coli BL21(DE3)
T1 sequence (Q04759 231-281 limits assumed): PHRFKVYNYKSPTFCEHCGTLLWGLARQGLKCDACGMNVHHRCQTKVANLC
Outline: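 Recombinant GST-C1b domains (E. coli-expressed) or full-length human PKC competed against tracer ^3H-PDBu; incubation 10 min at 37°C then 20 min on ice, bound radioligand filter-trapped and scintillation-counted. IC50 fitted and converted to Ki via Cheng-Prusoff using experimentally determined Kd per protein preparation.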

[2] = tested on: KP-4 (Pancreatic) cell line; assay: Proliferation of KP-4; assay type: cell-based; conditions: Homo sapiens, KP-4, read-out: IC50 in μM KP-4 (Pancreatic)
Outline: as §1

[3] = tested on: phosphorylation of CaMKii at T286 in Panc1 cells; assay: CaMKii phosphorylation in Panc1 cell line (Western blot); assay type: cell-based; conditions: 0.02 μM and 0.1 M, 48 hours (FIG. 5)
Method: Panc1 (a pancreatic cancer cell line) cells (˜5-8 millions) were seeded in 10 cm dishes (or ˜2 millions in 6 cm dishes) and treated next day with prostratin (K-101, 0.2 μM and 1 μM) or 0.02 μM and […] of K101-C1347, -C134801, and -C134802 for 48 hours. Cells were then collected/lysed for Western blot analysis. Protein quantification, SDS-PAGE, and Western blot procedures were performed as described in Example 65, except that a different lysis buffer (1 ml of 10×TNE [20 mL 1M Tris pH7.5; 30 mL 5M NaCl; 2 mL 0.5M EDTA; 48 mL d2H2O], 1 ml of 10% NP40, 7.7 mL of dH2O, 100 μL of 10× Protease inhibitors, 100 μL of 10× Phosphatase inhibitors, and 10 μl DTT) was used. To assess the effect of diterpenoid compounds on CaMKii phosphorylation, a phospho-specific antibody P-CaMKii (T286) (Abcam, cat #32678) was used for detection. Phosphorylation of CaMKii at T286 is a marker for activation of CaMKii kinase in the Wnt/Ca^2+ signaling pathway when […] and thus a downstream marker for inhibition of K-Ras stemness (Wang et al., Cell. 2015, 163(5):1237-51).

With `CC1=C[C@H]2[C@@]3(O)[C@H](C)C[C@]4(OC(=O)[C@@H](N)CC5CCCCC5)[C@H]([C@@H]3C=C(CO)C[C@]2(O)C1=O)C4(C)C` [Compound K101-C1327] the IC50 [1] was 0.001 to 0.01 µM, the “ratio of (IC50 of K01)/(IC50 of compound), Mino” value (from here on “ratio”) [1] was 7.33 and the Ki (C1b domain of human PKCθ) was 5 to 10 nM. It also gave an IC50 [2] of 0.1 to 0.2 µM.

In the case of `CC1=C[C@H]2[C@@]3(O)[C@H](C)C[C@]4(OC(=O)[C@@H](N)[C@]56C[C@H]7C[C@H](C[C@H](C7)C5)C6)[C@H]([C@@H]3C=C(CO)C[C@]2(O)C1=O)C4(C)C` [Compound K101-C1347], the IC50 [1] is reported as 0.001 to 0.01 µM, the “ratio” value [1] is reported as 52.2 and the Ki (C1b domain of human PKCθ) is reported as under 5 nM. The IC50 [2] was 0.001 to 0.01 µM and the “phosphorylation of CaMKii at T286” value [3] was “induced phosphorylation of CaMKii at T286”.

`CC1=C[C@H]2[C@@]3(O)[C@H](C)C[C@]4(OC(=O)[C@H](N)CCCCCCc5ccccc5)[C@H]([C@@H]3C=C(CO)C[C@]2(O)C1=O)C4(C)C` [Compound K101-C134801] was tested, and the IC50 [1] was 0.001 to 0.01 µM, the “ratio” value [1] was 21.3 and the Ki (C1b domain of human PKCθ) was 1 to 30 nM. The IC50 [2] was 0.03 to 0.06 µM and the “phosphorylation of CaMKii at T286” value [3] was “induced phosphorylation of CaMKii at T286”.

In the case of `CC1=C[C@H]2[C@@]3(O)[C@H](C)C[C@]4(OC(=O)[C@@H](N)CCCCCCc5ccccc5)[C@H]([C@@H]3C=C(CO)C[C@]2(O)C1=O)C4(C)C` [Compound K101-C134802], the IC50 [1] is reported as 0.001 to 0.01 µM, the “ratio” value [1] is reported as 52.2 and the Ki (C1b domain of human PKCθ) is reported as under 5 nM. The IC50 [2] was 0.001 to 0.01 µM and the “phosphorylation of CaMKii at T286” value [3] was “induced phosphorylation of CaMKii at T286”.
